# Laboratory results as given in US10647679B2, “N-methyl-D-aspartate receptor (NMDAR) potentiators, pharmaceutical compositions, and uses related thereto” (Emory University, priority 2015, dated 2020).
# Read-outs that look alike come from different tables or passages of the source.
# Key:
# Assay type in all cases: cell-based
# [1] = target: T1, recombinant rat GluN1/GluN2B (Rattus norvegicus, UniProt Q00960); test: Two-electrode voltage-clamp (TEVC) recordings in Xenopus laevis oocytes, GluN1/GluN2B; details: for I30 μM/Icontrol (mean ± SEM, %) GluN2B: 30 μM compound, Tables 5-7
# T1 construct: expressed in transfected cells; host or cells: Xenopus laevis oocytes (Ecocyte) injected with in vitro transcribed cRNA
# T1 sequence (Q00960 27-1482, other chains not shown): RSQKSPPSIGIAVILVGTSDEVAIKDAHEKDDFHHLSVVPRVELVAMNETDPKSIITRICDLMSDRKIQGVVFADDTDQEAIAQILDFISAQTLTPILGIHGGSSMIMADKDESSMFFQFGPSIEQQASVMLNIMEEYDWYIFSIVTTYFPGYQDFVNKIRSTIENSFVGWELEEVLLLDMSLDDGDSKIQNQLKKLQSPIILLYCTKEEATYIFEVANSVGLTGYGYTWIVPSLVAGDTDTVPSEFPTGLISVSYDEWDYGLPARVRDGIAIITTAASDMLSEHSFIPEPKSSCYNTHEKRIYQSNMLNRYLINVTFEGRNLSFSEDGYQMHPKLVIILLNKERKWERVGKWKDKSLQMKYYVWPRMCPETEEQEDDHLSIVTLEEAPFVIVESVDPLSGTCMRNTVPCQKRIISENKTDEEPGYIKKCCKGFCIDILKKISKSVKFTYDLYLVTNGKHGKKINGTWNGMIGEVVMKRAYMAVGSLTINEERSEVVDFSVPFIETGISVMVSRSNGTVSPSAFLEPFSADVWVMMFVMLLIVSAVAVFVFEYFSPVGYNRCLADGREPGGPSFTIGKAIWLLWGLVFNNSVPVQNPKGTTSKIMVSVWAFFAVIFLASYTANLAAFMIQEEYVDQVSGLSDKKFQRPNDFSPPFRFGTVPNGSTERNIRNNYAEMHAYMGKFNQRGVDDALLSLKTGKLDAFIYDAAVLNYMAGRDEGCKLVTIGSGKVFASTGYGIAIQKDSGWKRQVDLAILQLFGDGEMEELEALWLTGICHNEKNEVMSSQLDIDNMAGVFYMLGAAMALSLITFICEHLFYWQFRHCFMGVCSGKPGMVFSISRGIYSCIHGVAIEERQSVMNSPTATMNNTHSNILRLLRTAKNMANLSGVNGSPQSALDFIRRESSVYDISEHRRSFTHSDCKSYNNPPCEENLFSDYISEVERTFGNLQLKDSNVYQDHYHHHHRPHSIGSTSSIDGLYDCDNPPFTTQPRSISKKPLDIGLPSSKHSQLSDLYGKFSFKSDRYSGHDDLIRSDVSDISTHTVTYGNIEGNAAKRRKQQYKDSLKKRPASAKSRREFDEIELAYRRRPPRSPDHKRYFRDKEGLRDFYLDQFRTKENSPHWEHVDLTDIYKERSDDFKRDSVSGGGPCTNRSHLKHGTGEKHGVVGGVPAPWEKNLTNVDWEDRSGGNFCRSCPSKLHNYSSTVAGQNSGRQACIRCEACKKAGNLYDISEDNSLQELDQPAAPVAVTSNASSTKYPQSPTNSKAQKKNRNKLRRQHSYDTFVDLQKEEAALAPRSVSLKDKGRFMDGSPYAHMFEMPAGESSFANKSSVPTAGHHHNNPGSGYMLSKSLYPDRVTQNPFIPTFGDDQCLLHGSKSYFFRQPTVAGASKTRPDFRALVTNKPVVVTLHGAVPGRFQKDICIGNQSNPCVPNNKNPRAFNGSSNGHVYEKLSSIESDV
# Method: (§1) Data are from between 3-26 oocytes from 2-5 frogs for each compound and receptor tested.
# (§2) Two-electrode voltage-clamp recordings were performed in Xenopus laevis oocytes (Ecocyte) expressing recombinant rat GluN1/GluN2A, GluN1/GluN2B, GluN1/GluN2C, GluN1/GluN2D. cRNA was transcribed in vitro (Ambion), diluted with nuclease free water, and injected at a ratio of 1:2 GluN1:GluN2 (5-10 ng total cRNA). The oocytes were kept in Barth's solution comprised of (in mM) 88 NaCl, 5 Tris-HCl, 2.4 NaHCO3, 1 KCl, 0.84 MgSO4, 0.41 CaCl2, and 0.33 Ca(NO3)2 at pH 7.4 at 15-17° C. for two to five days before experiments. Oocytes were placed into a perfusion chamber and continually washed with recording solution containing (in mM) 90 NaCl, 1.0 KCl, 0.5 BaCl2, 0.005 EDTA, and 10 HEPES at pH 7.4 (23° C.). Voltage clamp recordings were conducted at a holding potential of −40 mV. All compounds were made as 20 mM stock solutions in DMSO and dissolved to reach the final concentration in recording solution. Final DMSO content was 0.05-0.5% (vol/vol). Some oocytes expressing GluN1/GluN2A were pretreated with […] BAPTA-AM for 10 minutes or injected with […] of 2 mM K-BAPTA to prevent gradual run-up of the current response.
# [2] = target: T2, recombinant rat GluN1/GluN2C (Rattus norvegicus, UniProt Q00961); test: Two-electrode voltage-clamp (TEVC) recordings in Xenopus laevis oocytes, GluN1/GluN2C; details: for I30 μM/Icontrol (mean ± SEM, %) GluN2C: 30 μM compound, Tables 5-7
# T2 construct: expressed in transfected cells; host or cells: Xenopus laevis oocytes (Ecocyte) injected with in vitro transcribed cRNA
# T2 sequence (Q00961 20-1237, other chains not shown): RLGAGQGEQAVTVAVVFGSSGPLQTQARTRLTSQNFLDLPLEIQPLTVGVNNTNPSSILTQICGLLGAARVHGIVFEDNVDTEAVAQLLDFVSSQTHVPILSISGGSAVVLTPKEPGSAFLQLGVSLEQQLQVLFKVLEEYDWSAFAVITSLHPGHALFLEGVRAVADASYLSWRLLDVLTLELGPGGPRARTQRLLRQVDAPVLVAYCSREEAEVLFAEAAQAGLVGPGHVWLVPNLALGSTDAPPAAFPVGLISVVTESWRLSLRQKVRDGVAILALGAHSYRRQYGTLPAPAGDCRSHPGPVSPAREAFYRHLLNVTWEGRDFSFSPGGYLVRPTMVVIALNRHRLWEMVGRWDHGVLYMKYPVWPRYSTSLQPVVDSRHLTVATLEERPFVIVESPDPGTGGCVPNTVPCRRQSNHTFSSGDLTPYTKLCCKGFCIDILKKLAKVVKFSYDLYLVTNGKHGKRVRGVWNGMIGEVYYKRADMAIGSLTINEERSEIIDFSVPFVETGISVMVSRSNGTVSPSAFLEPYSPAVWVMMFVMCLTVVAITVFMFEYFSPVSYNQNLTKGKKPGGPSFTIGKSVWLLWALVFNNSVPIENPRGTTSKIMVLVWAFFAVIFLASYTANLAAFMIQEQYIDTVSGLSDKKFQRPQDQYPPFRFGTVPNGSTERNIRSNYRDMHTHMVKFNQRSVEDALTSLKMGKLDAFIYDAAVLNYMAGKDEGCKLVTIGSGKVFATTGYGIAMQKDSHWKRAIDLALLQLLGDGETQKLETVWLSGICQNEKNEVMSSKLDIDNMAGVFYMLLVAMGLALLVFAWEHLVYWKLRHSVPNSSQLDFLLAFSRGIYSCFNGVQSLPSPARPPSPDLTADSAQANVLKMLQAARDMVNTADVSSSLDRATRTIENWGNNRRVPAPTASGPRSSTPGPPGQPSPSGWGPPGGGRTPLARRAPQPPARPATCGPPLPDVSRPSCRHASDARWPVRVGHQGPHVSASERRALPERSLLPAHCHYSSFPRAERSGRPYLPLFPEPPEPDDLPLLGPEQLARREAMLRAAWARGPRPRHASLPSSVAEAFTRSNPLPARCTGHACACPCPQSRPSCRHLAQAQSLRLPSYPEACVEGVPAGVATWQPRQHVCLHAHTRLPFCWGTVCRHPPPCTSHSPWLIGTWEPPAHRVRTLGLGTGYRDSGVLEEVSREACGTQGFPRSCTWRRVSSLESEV
# Method: as §1, §2
# [3] = target: T3, recombinant rat GluN1/GluN2D (Rattus norvegicus, UniProt Q62645); test: Two-electrode voltage-clamp (TEVC) recordings in Xenopus laevis oocytes, GluN1/GluN2D; details: for I30 μM/Icontrol (mean ± SEM, %) GluN2D: 30 μM compound, Tables 5-7
# T3 construct: expressed in transfected cells; host or cells: Xenopus laevis oocytes (Ecocyte) injected with in vitro transcribed cRNA
# T3 sequence (Q62645 28-1323, other chains not shown): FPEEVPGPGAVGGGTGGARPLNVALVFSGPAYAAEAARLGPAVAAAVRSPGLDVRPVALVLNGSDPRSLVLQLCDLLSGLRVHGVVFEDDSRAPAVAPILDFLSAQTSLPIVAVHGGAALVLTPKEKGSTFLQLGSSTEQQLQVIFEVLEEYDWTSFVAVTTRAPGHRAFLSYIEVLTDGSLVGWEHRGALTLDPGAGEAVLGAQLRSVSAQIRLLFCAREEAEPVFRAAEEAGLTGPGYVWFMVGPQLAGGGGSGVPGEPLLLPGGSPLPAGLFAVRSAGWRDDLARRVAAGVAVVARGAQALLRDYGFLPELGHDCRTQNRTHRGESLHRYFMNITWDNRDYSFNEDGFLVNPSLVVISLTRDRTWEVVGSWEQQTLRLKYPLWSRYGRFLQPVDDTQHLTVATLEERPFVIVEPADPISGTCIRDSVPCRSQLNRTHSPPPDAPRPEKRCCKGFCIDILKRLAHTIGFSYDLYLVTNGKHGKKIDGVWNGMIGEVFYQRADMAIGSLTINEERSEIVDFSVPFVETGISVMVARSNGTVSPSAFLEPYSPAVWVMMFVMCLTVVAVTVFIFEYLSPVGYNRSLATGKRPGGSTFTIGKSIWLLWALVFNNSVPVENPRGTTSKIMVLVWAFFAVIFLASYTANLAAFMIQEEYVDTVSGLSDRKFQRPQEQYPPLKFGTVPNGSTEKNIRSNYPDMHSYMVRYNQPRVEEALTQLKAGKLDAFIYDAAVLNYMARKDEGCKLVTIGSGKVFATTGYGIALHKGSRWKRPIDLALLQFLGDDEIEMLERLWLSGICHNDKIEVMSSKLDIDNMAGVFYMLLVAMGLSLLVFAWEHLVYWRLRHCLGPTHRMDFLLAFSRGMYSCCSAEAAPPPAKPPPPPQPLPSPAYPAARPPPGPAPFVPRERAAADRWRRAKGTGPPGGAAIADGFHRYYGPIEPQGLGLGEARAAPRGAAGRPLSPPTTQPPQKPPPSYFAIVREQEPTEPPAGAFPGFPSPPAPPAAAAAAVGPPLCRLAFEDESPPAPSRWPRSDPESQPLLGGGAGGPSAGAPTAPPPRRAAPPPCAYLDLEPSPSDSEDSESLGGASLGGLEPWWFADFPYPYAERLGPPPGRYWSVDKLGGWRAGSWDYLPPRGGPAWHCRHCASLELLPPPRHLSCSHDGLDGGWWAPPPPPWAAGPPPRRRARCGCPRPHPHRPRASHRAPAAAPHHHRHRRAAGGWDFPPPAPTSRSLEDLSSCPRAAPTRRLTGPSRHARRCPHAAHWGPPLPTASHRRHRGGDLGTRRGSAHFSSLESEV
# Method: as §1, §2
# [4] = target: T4, recombinant rat GluN1/GluN2B (Rattus norvegicus, UniProt P35439+Q00960); test: Two-electrode voltage-clamp (TEVC) recordings in Xenopus laevis oocytes, GluN1/GluN2B
# T4 construct: expressed in transfected cells; host or cells: Xenopus laevis oocytes (Ecocyte) injected with in vitro transcribed cRNA
# Method: as §1, §2
# [5] = target: T5, recombinant rat GluN1/GluN2C (Rattus norvegicus, UniProt P35439+Q00961); test: Two-electrode voltage-clamp (TEVC) recordings in Xenopus laevis oocytes, GluN1/GluN2C; details: maximum potentiation, response without modulator = 100%; read-out: GluN2C EC50 (μM)/Max %: Max %
# T5 construct: expressed in transfected cells; host or cells: Xenopus laevis oocytes (Ecocyte) injected with in vitro transcribed cRNA
# T5 sequence (Q00961 20-1237, other chains not shown): as the sequence (Q00961 20-1237, other chains not shown) above
# Method: as §1, §2
# [6] = fitted when potentiation at 30 μM exceeded 120%, Tables 3, 5-7, read-out: EC50 (max.) (μM %) GluN2B: fitted EC50
# [7] = maximum potentiation, response without modulator = 100%
# [8] = percentage of the initial glutamate (100 μM) and glycine (30 μM) current
# [9] = maximum potentiation, response without modulator = 100%, read-out: GluN2B EC50 (μM)/Max %: Max %
# [10] = read-out: EC50 & Max Effect: 2C
smiles,measurement,setting,value
CCOCC(=O)N1CCc2cc(OC)ccc2C1COc1ccc(OC)cc1 (stereo not shown) [1180-240],GluN2B response % at 30 µM,[1],100% at 30
same,GluN2C response % at 30 µM,[2],115% at 30
same,GluN2D response % at 30 µM,[3],114% at 30
CCOc1ccc(OCC2c3ccc(OC(C)C)cc3CCN2C(=S)c2cccc(F)c2)cc1 (racemic) [1180-154],"I30 μM/Icontrol (mean ± SEM, %) GluN2B",[1],184%
same,EC50,[1]; [6],0.7 µM
same,GluN2B EC50 (μM)/Max %: Max %,[1]; [7],200%
same,EC50 (max.) (μM %) GluN2B: fitted maximum response,[1]; [8],(190%)
same,"I30 μM/Icontrol (mean ± SEM, %) GluN2C",[2],166%
same,EC50,"[2]; fitted when potentiation at 30 μM exceeded 120%, Tables 3, 5-7, read-out: EC50 (max.) (μM %) GluN2C: fitted EC50",1.4 µM
same,GluN2C EC50 (μM)/Max %: Max %,[2]; [7],191%
same,EC50 (max.) (μM %) GluN2C: fitted maximum response,[2]; [8],(145%)
same,"I30 μM/Icontrol (mean ± SEM, %) GluN2D",[3],154%
same,EC50,"[3]; fitted when potentiation at 30 μM exceeded 120%, Tables 3, 5-7, read-out: EC50 (max.) (μM %) GluN2D: fitted EC50",1.2 µM
same,GluN2D EC50 (μM)/Max %: Max %,[3]; [7],159%
same,EC50 (max.) (μM %) GluN2D: fitted maximum response,[3]; [8],(153%)
CCOc1ccc(OCC2c3ccc(OC(C)C)cc3CCN2C(=O)c2cccc(Cl)c2)cc1 (stereo not shown) [1180-83],Emax,[4]; [9],141%
same,Emax,[5],125%
COc1ccc(OCC2c3cc(O)c(OC)cc3CCN2C(=O)C=CC(F)(F)F)cc1 (stereo not shown) [1180-328],GluN2B response % at 30 µM,[1],100 at 30%
same,GluN2C response % at 30 µM,[2],109 at 30%
same,GluN2D response % at 30 µM,[3],120 at 30%
CCOc1ccc(OC[C@H]2c3ccc(OC(C)C)cc3CCN2C(=O)c2cccc(F)c2)cc1 [(R)-(+)-1180-87],"I30 μM/Icontrol (mean ± SEM, %) GluN2B",[1],103%
same,"I30 μM/Icontrol (mean ± SEM, %) GluN2C",[2],103%
same,"I30 μM/Icontrol (mean ± SEM, %) GluN2D",[3],86%
CC(C)Oc1ccc(OCC2c3ccc(OC(C)C)cc3CCN2C(=O)c2cccc(Cl)c2)cc1 (stereo not shown) [1180-264],EC50,"[1]; untitled tables after drawing 25 and drawing 36, read-out: EC50 (μM) GluN2B",4.6 µM
same,GluN2C response % at 30 µM,[2],127% at
same,GluN2D response % at 30 µM,[3],101% at
COc1ccc(OCC2c3cc(OC(=O)c4cccc(Cl)c4)c(OC)cc3CCN2C(=O)C=CC(F)(F)F)cc1 (stereo not shown) [1180-330],GluN2B response % at 30 µM,[1],95 at 30%
same,GluN2C response % at 30 µM,[2],102 at 30%
same,GluN2D response % at 30 µM,[3],96 at 30%
CCOc1ccc(OC[C@H]2c3ccc(OC(C)C)cc3CCN2C(=O)c2ccc(Cl)c(Cl)c2)cc1 [(R)-(+)-1180-103],"I30 μM/Icontrol (mean ± SEM, %) GluN2B",[1],83%
same,"I30 μM/Icontrol (mean ± SEM, %) GluN2C",[2],92%
same,"I30 μM/Icontrol (mean ± SEM, %) GluN2D",[3],93%
CCOc1ccc(OCC2c3ccc(OC(C)C)cc3CCN2S(=O)(=O)c2cccc(Cl)c2)cc1 (stereo not shown) [1180-199],GluN2C response % at 10 μM,"[2]; at 10 μM, Table 9",142% at 10 μM
COc1ccc(OC[C@H]2c3cc(OC)c(OC)cc3CCN2C(=O)c2cccc(Cl)c2)cc1 [R-1390],EC50 & Max Effect: 2C (μM),[2],Inactive
same,EC50 & Max Effect: 2D (μM),[3],Inactive
CCOc1ccc(OCC2c3ccc(OC(C)C)cc3CCN2C(=O)c2cccc(F)c2)cc1 (stereo not shown) [1180-87],EC50,[4]; [6],2.8 µM
same,Emax,[4]; [9],152%
same,Emax,"[4]; percentage of the initial glutamate (100 μM) and glycine (30 μM) current, read-out: EC50 (max.) (μM %) GluN2B: fitted maximum response",152%
same,"I30 μM/Icontrol (mean ± SEM, %) GluN2B",[1],151%
same,"I30 μM/Icontrol (mean ± SEM, %) GluN2C",[2],103%
CCOc1ccc(OCC2c3ccc(OC4CCCC4)cc3CCN2C(=S)c2cccc(F)c2)cc1 (racemic) [1180-162],EC50 & Max Effect: 2C Max (%),[2],218%
same,EC50,[2]; [10],0.26 µM
same,EC50 & Max Effect: 2D Max (%),[3],295%
same,EC50,[3]; read-out: EC50 & Max Effect: 2D,0.39 µM
"COc1ccc(OCC2c3cc(OC)c(OC)cc3CCN2C(=O)c2cccc(Cl)c2)cc1 (stereo not shown) [1390 (CIQ), reference compound]",EC50 & Max Effect: 2C Max (%),[2],215%
same,EC50,[2]; [10],2.9 µM
same,EC50 & Max Effect: 2D Max (%),[3]; Tables 11-13,205%
COc1ccc(OCC2c3ccc(OC)cc3CCN2C(=O)C=C(C)C(F)(F)F)cc1 (stereo not shown) [1180-255],GluN2B response % at 30 µM,[1],99% at 30
same,EC50,"[2]; untitled tables after drawing 25 and drawing 36, read-out: EC50 (μM) GluN2C",15 µM
same,EC50,"[3]; untitled tables after drawing 25 and drawing 36, read-out: EC50 (μM) GluN2D",23 µM
CCOc1ccc(OC[C@@H]2c3ccc(OC(C)C)cc3CCN2C(=S)c2cccc(C(F)(F)F)c2)cc1 [(S)-(−)-1180-168],"I30 μM/Icontrol (mean ± SEM, %) GluN2B",[1],95%
same,"I30 μM/Icontrol (mean ± SEM, %) GluN2C",[2],87%
same,"I30 μM/Icontrol (mean ± SEM, %) GluN2D",[3],87%
CCOc1ccc(OCC2c3ccc(OC(C)C)cc3CCN2C(=S)c2ccc(Cl)c(Cl)c2)cc1 (stereo not shown) [1180-155],Emax,[4]; [9],157%
same,Emax,[5],169%
